Assay results taken from PubChem BioAssay (NCI).
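Results reflect a 48-hour exposure of cells in 96-well plates to compound at five concentrations. Here, GI50 denotes the concentration required for 50% inhibition of growth. TGI: total growth inhibition.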

Experiments:
Experiment in all cases: DTP human tumour cell line panel, 48 h
[1] = test system: SF-268 CNS
[2] = test system: A549 NSCLC
[3] = test system: UO-31 renal
[4] = test system: RXF 393 renal
[5] = test system: EKVX NSCLC
[6] = test system: BT-549 breast
[7] = test system: OVCAR-4 ovarian
[8] = test system: MDA-MB-231 breast
[9] = test system: HCT-116 colon
[10] = test system: CAKI-1 renal
[11] = test system: A498 renal
[12] = test system: NCI/ADR-RES ovarian
[13] = test system: SF-539 CNS
[14] = test system: SK-MEL-28 melanoma
[15] = test system: NCI-H226 lung
[16] = test system: OVCAR-3 ovarian
[17] = test system: OVCAR-8 ovarian
[18] = test system: SNB-75 CNS
[19] = test system: SK-OV-3 ovarian
[20] = test system: HCT-15 colon
[21] = test system: OVCAR-5 ovarian
[22] = test system: CCRF-CEM leukemia
[23] = test system: HS 578T breast
[24] = test system: HT29 colon
[25] = test system: SK-MEL-2 melanoma
[26] = test system: ACHN renal
[27] = test system: SK-MEL-5 melanoma
[28] = test system: MOLT-4 leukemia
[29] = test system: KM12 colon
[30] = test system: LOX IMVI melanoma
[31] = test system: HCC-2998 colon
[32] = test system: MCF7 breast
[33] = test system: NCI-H522 lung
[34] = test system: U251 CNS
[35] = test system: RPMI-8226 leukemia
[36] = test system: HOP-62 NSCLC
[37] = test system: UACC-62 melanoma
[38] = test system: PC-3 prostate
[39] = test system: T-47D breast
[40] = test system: TK-10 renal
[41] = test system: SW-620 colon
[42] = test system: HL-60(TB) leukemia
[43] = test system: M14 melanoma
[44] = test system: DU-145 prostate
[45] = test system: K-562 leukemia
[46] = test system: SR leukemia
[47] = test system: UACC-257 melanoma
[48] = test system: SNB-19 CNS
[49] = test system: HOP-92 NSCLC
[50] = test system: COLO 205 colon
[51] = test system: NCI-H23 lung
[52] = test system: MDA-MB-435
[53] = test system: SF-295 CNS
[54] = test system: 786-0 renal
[55] = test system: NCI-H460 lung
[56] = test system: SN12C renal
[57] = test system: MALME-3M melanoma
[58] = test system: IGROV1 ovarian

CCCCCCCCCCCC1=NC(C)(C)CN1C(C)(C)CO
GI50 [1]: 2.35 µM
TGI [1]: 11.3 µM
GI50 [2]: 6.53 µM
TGI [2]: 19.6 µM
GI50 [3]: 2.03 µM
TGI [3]: 8.42 µM
GI50 [4]: 2.26 µM
TGI [4]: 4.48 µM
GI50 [5]: 2.77 µM
TGI [5]: 16.9 µM
GI50 [6]: 9.89 µM
TGI [6]: 22 µM
GI50 [7]: 4.61 µM
TGI [7]: 15.8 µM
GI50 [8]: 2.1 µM
TGI [8]: 4.48 µM
GI50 [9]: 1.56 µM
TGI [9]: 3.06 µM
GI50 [10]: 1.73 µM
TGI [10]: 4.37 µM
GI50 [11]: 5.76 µM
TGI [11]: 20.8 µM
GI50 [12]: 2.41 µM
TGI [12]: 5.76 µM
GI50 [13]: 1.85 µM
TGI [13]: 3.51 µM
GI50 [14]: 1.83 µM
TGI [14]: 3.41 µM
GI50 [15]: 5.16 µM
TGI [15]: 20.5 µM
GI50 [16]: 2.05 µM
TGI [16]: 6.2 µM
GI50 [17]: 3.33 µM
TGI [17]: 13.4 µM
GI50 [18]: 2.3 µM
TGI [18]: 7.12 µM
GI50 [19]: 3.8 µM
TGI [19]: 12.4 µM
GI50 [20]: 2.15 µM
TGI [20]: 4.74 µM
GI50 [21]: 3.61 µM
TGI [21]: 15 µM
GI50 [22]: 2.94 µM
TGI [22]: 12.4 µM
GI50 [23]: 1.45 µM
TGI [23]: 3.48 µM
GI50 [24]: 1.92 µM
TGI [24]: 4.1 µM
GI50 [25]: 2.12 µM
TGI [25]: 3.88 µM
GI50 [26]: 3.01 µM
TGI [26]: 10 µM
GI50 [27]: 1.79 µM
TGI [27]: 3.3 µM
GI50 [28]: 2.79 µM
TGI [28]: 8.66 µM
GI50 [29]: 1.72 µM
TGI [29]: 3.14 µM
GI50 [30]: 1.91 µM
TGI [30]: 3.79 µM
GI50 [31]: 1.75 µM
TGI [31]: 3.24 µM
GI50 [32]: 2.48 µM
TGI [32]: 5.64 µM
GI50 [33]: 1.84 µM
TGI [33]: 4.02 µM
GI50 [34]: 1.9 µM
TGI [34]: 4.77 µM
GI50 [35]: 2.49 µM
TGI [35]: 5.83 µM
GI50 [36]: 2.72 µM
TGI [36]: 9.53 µM
GI50 [37]: 1.86 µM
TGI [37]: 3.54 µM
GI50 [38]: 3.11 µM
TGI [38]: 12.8 µM
GI50 [39]: 2.05 µM
TGI [39]: 5.31 µM
GI50 [40]: 1.94 µM
TGI [40]: 3.61 µM
GI50 [41]: 1.67 µM
TGI [41]: 3.08 µM
GI50 [42]: 1.77 µM
TGI [42]: 4.66 µM
GI50 [43]: 1.79 µM
TGI [43]: 3.4 µM
GI50 [44]: 3.12 µM
TGI [44]: 15.3 µM
GI50 [45]: 1.84 µM
TGI [45]: 4.38 µM
GI50 [46]: 3.07 µM
TGI [46]: 12.5 µM
GI50 [47]: 1.65 µM
TGI [47]: 3.28 µM
GI50 [48]: 5.15 µM
TGI [48]: 20.2 µM
GI50 [49]: 2.31 µM
TGI [49]: 7.49 µM
GI50 [50]: 1.59 µM
TGI [50]: 3 µM
GI50 [51]: 2.11 µM
TGI [51]: 4.67 µM
GI50 [52]: 1.73 µM
TGI [52]: 3.5 µM
GI50 [53]: 2.04 µM
TGI [53]: 4.29 µM
GI50 [54]: 1.93 µM
TGI [54]: 3.89 µM
GI50 [55]: 1.55 µM
TGI [55]: 2.91 µM
GI50 [56]: 4.31 µM
TGI [56]: 17.5 µM

Nc1ccn(C2CC(F)C(CO)O2)c(=O)n1 (centres undefined)
GI50 [1]: > 100 µM
TGI [1]: > 100 µM
GI50 [2]: > 100 µM
TGI [2]: > 100 µM
GI50 [3]: > 100 µM
TGI [3]: > 100 µM
GI50 [4]: > 100 µM
TGI [4]: > 100 µM
GI50 [5]: > 100 µM
TGI [5]: > 100 µM
GI50 [6]: > 100 µM
TGI [6]: > 100 µM
GI50 [7]: > 100 µM
TGI [7]: > 100 µM
GI50 [8]: > 100 µM
TGI [8]: > 100 µM
GI50 [9]: > 100 µM
TGI [9]: > 100 µM
GI50 [10]: > 100 µM
TGI [10]: > 100 µM
GI50 [12]: > 100 µM
TGI [12]: > 100 µM
GI50 [13]: > 100 µM
TGI [13]: > 100 µM
GI50 [14]: > 100 µM
TGI [14]: > 100 µM
GI50 [15]: > 100 µM
TGI [15]: > 100 µM
GI50 [16]: > 100 µM
TGI [16]: > 100 µM
GI50 [17]: > 100 µM
TGI [17]: > 100 µM
GI50 [18]: > 100 µM
TGI [18]: > 100 µM
GI50 [19]: > 100 µM
TGI [19]: > 100 µM
GI50 [20]: > 100 µM
TGI [20]: > 100 µM
GI50 [21]: > 100 µM
TGI [21]: > 100 µM
GI50 [22]: > 100 µM
TGI [22]: > 100 µM
GI50 [23]: > 100 µM
TGI [23]: > 100 µM
GI50 [24]: > 100 µM
TGI [24]: > 100 µM
GI50 [25]: > 100 µM
TGI [25]: > 100 µM
GI50 [26]: > 100 µM
TGI [26]: > 100 µM
GI50 [27]: > 100 µM
TGI [27]: > 100 µM
GI50 [28]: > 100 µM
TGI [28]: > 100 µM
GI50 [29]: > 100 µM
TGI [29]: > 100 µM
GI50 [30]: > 100 µM
TGI [30]: > 100 µM
GI50 [31]: > 100 µM
TGI [31]: > 100 µM
GI50 [32]: > 100 µM
TGI [32]: > 100 µM
GI50 [33]: > 100 µM
TGI [33]: > 100 µM
GI50 [34]: > 100 µM
TGI [34]: > 100 µM
GI50 [35]: > 100 µM
TGI [35]: > 100 µM
GI50 [36]: > 100 µM
TGI [36]: > 100 µM
GI50 [37]: > 100 µM
TGI [37]: > 100 µM
GI50 [38]: > 100 µM
TGI [38]: > 100 µM
GI50 [39]: > 100 µM
TGI [39]: > 100 µM
GI50 [40]: > 100 µM
TGI [40]: > 100 µM
GI50 [42]: > 100 µM
TGI [42]: > 100 µM
GI50 [43]: > 100 µM
TGI [43]: > 100 µM
GI50 [44]: > 100 µM
TGI [44]: > 100 µM
GI50 [45]: > 100 µM
TGI [45]: > 100 µM
GI50 [57]: > 100 µM
TGI [57]: > 100 µM
GI50 [46]: > 100 µM
TGI [46]: > 100 µM
GI50 [47]: > 100 µM
TGI [47]: > 100 µM
GI50 [48]: > 100 µM
TGI [48]: > 100 µM
GI50 [49]: > 100 µM
TGI [49]: > 100 µM
GI50 [50]: > 100 µM
TGI [50]: > 100 µM
GI50 [51]: > 100 µM
TGI [51]: > 100 µM
GI50 [52]: > 100 µM
TGI [52]: > 100 µM
GI50 [53]: > 100 µM
TGI [53]: > 100 µM
GI50 [58]: > 100 µM
TGI [58]: > 100 µM
GI50 [54]: > 100 µM
TGI [54]: > 100 µM
GI50 [55]: > 100 µM
TGI [55]: > 100 µM
GI50 [56]: > 100 µM
TGI [56]: > 100 µM
